# According to US20130115182A1, “TOPICAL USE OF STEVIOL OR DERIVATIVES IN HAIR CARE” (DSM NUTRITIONAL PRODUCTS LTD., priority 2010, published 2013):
# Legend:
# [1] = system: Normal human melanocytes NHM (HEMn-MP, Clonetics); test: Quantification of melanin synthesis in cell culture; type: cell-based; details: for Melanin content, percentage of the control: three days, absorbance 405 nm
# Description: Normal human melanocytes NHM (HEMn-MP, Clonetics) were seeded in 96 well cell culture plates and grown to sub-confluence for two days in a mixture of M2-Medium (Clonetics) and Medium (Promocell). Culture medium was exchanged with Culture Medium containing Steviol and melanogenesis progressed for another three days at 37° C. with another medium exchange on day two. Including cell layer and culture supernatant the total melanin was extracted using 1.7M KOH with vigorous shaking at RT. We measured melanin content at 405 nm in an absorbance plate reader. The data is normalized to 100% for the un-treated control sample, and expressed as percentage of the control.
# [2] = system: normal human scalp skin hair follicles; test: Hair follicle melanogenesis (in vitro graying of cultured anagen VI scalp hair follicles); type: cell-based; set-up: key: remaining pigmentation is scored minimal (+); steviol 1.25 μM (++); Remaining pigmentation is scored (+++); details: seven day culture
# Excerpt: For optimal quality of hair follicles with an intact pigmentary-unit, normal human scalp skin hair follicles in the anagen VI stage of the hair cycle were isolated from scalp skin biopsies obtained from elective plastic surgery after obtaining informed consent from patients following the protocol published by Philpott and colleagues with slight modifications (Philpott et al. 1990, Philpott 1999). Briefly, after separation of epidermis and dermis from subcutaneous fat the dermis just above the dermis/subcutis border under a binocular dissecting microscope, the proximal two thirds of anagen hair follicles located in the subcutaneous fat were isolated using watchmakers forceps and subsequently collected in Petri dishes containing complete hair follicle culture medium (Williams E, Biochrom KG seromed, Berlin, Germany); 1% Penicillin-Streptomycin; 1% L-Glutamine 200 mM; 0.02% hydrocortisone; 0.1% Insulin. Three hair follicles per well were then randomly distributed and cultured in 24 well plates (Costar, N.Y., USA) containing […] of complete hair follicle culture medium per well. Per experiment, a minimum of three wells (containing three hair follicles each) was assigned to each test group, and was supplemented with different concentrations of test substances pre-diluted in the respective dissolvent 100× concentrated. An equal number of control follicles were cultured in complete hair follicle culture medium alone. Each experiment was repeated with hair follicles from at least three different age, pigmentation and sex matched donors. Every second day, each well was photo-documented, the pigmentation degree of each hair follicle determined, medium replaced and fresh supplements added. After 7 days hair follicles were snap frozen and stored at −80° C. Steviol was tested at two different concentrations (0.625 and 1.25 μM). […] Sphingosyl phosphorylcholine at 1 μM was used as a positive control as it is known from previous work to reduce the speed of in vitro hair graying. Remaining pigmentation is scored (+++). […]
# Human hair follicles [3] = test: RT-PCR mRNA level of marker genes in hair follicles; type: cell-based
# Description: Human hair follicles were obtained from human skin fragments (obtained by plastic surgery) and grown in supplemented William's E medium supplemented with penicillin/streptomycin, L-glutamine (2 mM), insulin (10 μg/ml and hydrocortisone (8 nM). Hair follicle growth was assessed via length measurements (day 0, 4, 7). Triiodothyronine (T3, 30 μM) was used as positive control. […] At day 7, RNA was extracted from hair follicles that had been subjected to different treatments (control, T3, steviol). RNA was processed for Affymetrix® DNA microarray analysis in order to identify effects of compounds on gene expression. Where appropriate, RNA expression levels were further quantified by RT-PCR using the ABI 7900 Taqman instrumentation. The mRNA level of some marker genes involved in growth and/or differentiation of cells in the skin and in hair follicle was further determined by RT-PCR and is shown in Table 3.
# Human hair follicles [4] = test: Affymetrix DNA microarray gene expression in hair follicles; type: cell-based; details: day 7 RNA
# Description: (§1) Human hair follicles were obtained from human skin fragments (obtained by plastic surgery) and grown in supplemented William's E medium supplemented with penicillin/streptomycin, L-glutamine (2 mM), insulin (10 μg/ml and hydrocortisone (8 nM). Hair follicle growth was assessed via length measurements (day 0, 4, 7). Triiodothyronine (T3, 30 μM) was used as positive control. The effect of steviol (at 0.625 to 5 μg/ml) was tested in parallel. At day 7, RNA was extracted from hair follicles that had been subjected to different treatments (control, T3, steviol). RNA was processed for Affymetrix® DNA microarray analysis in order to identify effects of compounds on gene expression. Where appropriate, RNA expression levels were further quantified by RT-PCR using the ABI 7900 Taqman instrumentation. Global effects of steviol on gene expression were determined by transcriptomics i.e. DNA microarray analysis. The obtained data were processed with Genedata software tools.
# Human hair follicles [5] = test: Growth of human hair follicle (length measurements in culture); type: cell-based; details: for Growth (% of control): hair follicle length
# Description: as §1, with “instrumentation.” for “instrumentation. Global effects of steviol on gene expression were determined by transcriptomics i.e. DNA microarray analysis. The obtained data were processed with Genedata software tools.”
# [6] = Stabilization of steviol in acidic aqueous solution (discoloration, Pantone color index); type: physicochemical; details: for Pantone index (color index of solution): 1% solution in water
# Description: Steviol was dissolved at 1 wt.-% in water and the pH adjusted at different values as shown below. […] However, the more acidic the pH, the less discoloration was observed as reported by the patone color index. Color index of 1% Steviol solution in water at different pH: […]
smiles,measurement,setting,value
"CC1(C)[C@@H](O[C@H]2O[C@H](C(=O)O)[C@@H](O)[C@H](O)[C@H]2O[C@@H]2O[C@H](C(=O)O)[C@@H](O)[C@H](O)[C@H]2O)CC[C@]2(C)[C@H]3C(=O)C=C4[C@@H]5C[C@@](C)(C(=O)O)CC[C@]5(C)CC[C@@]4(C)[C@]3(C)CC[C@@H]12 [Glycyrrhizin, reference compound]","Melanin content, percentage of the control",[1]; 1.5 mM,132%
"CCCCCCCCCCCCC/C=C/[C@@H](O)[C@@H](N)COP(=O)([O-])OCC[N+](C)(C)C [Sphingosylphosphorylcholine, reference compound]",Pigmentation (remaining hair follicle pigmentation score),[2]; 1 microM,+++
"C=C1C[C@@]23CC[C@H]4[C@@](C)(CCC[C@@]4(C)C(=O)O)[C@@H]2CC[C@]1(O)C3 [Steviol, steviol]","Fold changes (versus control), Integrin alpha-6 mRNA",Human hair follicles [3]; 0.625 μg/mL,1.62 ± 0.06
same,"Fold changes (versus control), COX-2 mRNA",Human hair follicles [3]; 1.25 μg/mL,0.46 ± 0.17
same,"Fold changes (versus control), HO-1 mRNA",Human hair follicles [3]; 1.25 μg/mL,0.64 ± 0.08
same,"Fold changes (versus control), Involucrin mRNA",Human hair follicles [3]; 1.25 μg/mL,0.51 ± 0.22
same,"Fold changes (versus control), Keratin 6 mRNA",Human hair follicles [3]; 10 μg/mL,1.33 ± 0.11
same,"Melanin content, percentage of the control",[1]; 0.25 microM,109%
same,Production of melanin in human melanocytes (in words),[1]; 0.25 to 1 micro M,clear dose dependent positive effect on the production of melanin
same,"Melanin content, percentage of the control",[1]; 0.5 micro M,124%
same,"Melanin content, percentage of the control",[1]; 1 micro M,130%
same,"Ratio of steviol-treated/untreated, gene CASP8 and FADD-like apoptosis regulator",Human hair follicles [4],2.58
same,"Ratio of steviol-treated/untreated, gene Chemokine (C-X-C motif) ligand 12 (stromal cell-derived factor 1)",Human hair follicles [4],2.22
same,"Ratio of steviol-treated/untreated, gene Collagen, type IV, alpha 6",Human hair follicles [4],2.04
same,"Ratio of steviol-treated/untreated, gene Fibroblast growth factor 7 (keratinocyte growth factor)",Human hair follicles [4],2.91
same,"Ratio of steviol-treated/untreated, gene Insulin-like growth factor 1 receptor",Human hair follicles [4],2.00
same,"Ratio of steviol-treated/untreated, gene Integrin, alpha 6",Human hair follicles [4],2.15
same,"Ratio of steviol-treated/untreated, gene TIMP metallopeptidase inhibitor 3",Human hair follicles [4],2.32
same,"Ratio of steviol-treated/untreated, gene Topoisomerase (DNA) II alpha 170 kDa",Human hair follicles [4],2.45
same,"Ratio of steviol-treated/untreated, gene Transmembrane protein with EGF-like and two follistatin-like domains 2",Human hair follicles [4],3.10
same,Pigmentation (remaining hair follicle pigmentation score),[2]; 0.625 microM,+++
same,Pigmentation (remaining hair follicle pigmentation score),[2]; 1.25 microM,++
same,Growth (% of control),Human hair follicles [5]; 0.625 μg/mL,122 % of control
same,Growth (% of control),Human hair follicles [5]; 1.25 μg/mL,121 % of control
same,Growth (% of control),Human hair follicles [5]; 2.5 μg/mL,113 % of control
same,Growth (% of control),Human hair follicles [5]; 5 μg/mL,117 % of control
same,Elongation of hair follicles (in words),Human hair follicles [5]; 0.625 to 5 μg/ml,dose-dependently favoured the elongation of hair follicles
same,Pantone index (color index of solution),[6]; pH 6,155
same,Pantone index (color index of solution),[6]; pH 6.5,155
same,Pantone index (color index of solution),[6]; pH 7,158
same,Pantone index (color index of solution),[6]; pH 9,160
same,Time until solution turns brown (instability),"[6]; 1 wt.-% in water, pH 9",≤ 1 days
"N[C@@H](Cc1cc(I)c(Oc2ccc(O)c(I)c2)c(I)c1)C(=O)O [Triiodothyronine, reference compound]",Growth (% of control),"Human hair follicles [5]; 30 μM, day 0, 4, 7",133 % of control
